Laboratory results published in ChEMBL document CHEMBL1136903, “Spiroimidazolidinone NPC1L1 inhibitors. 1: Discovery by 3D-similarity-based virtual screening” (Bioorg Med Chem Lett, 2009).

Target: T1, NPC1-like intracellular cholesterol transporter 1 (Homo sapiens, UniProt Q9UHC9)
T1 sequence (Q9UHC9 whole entry): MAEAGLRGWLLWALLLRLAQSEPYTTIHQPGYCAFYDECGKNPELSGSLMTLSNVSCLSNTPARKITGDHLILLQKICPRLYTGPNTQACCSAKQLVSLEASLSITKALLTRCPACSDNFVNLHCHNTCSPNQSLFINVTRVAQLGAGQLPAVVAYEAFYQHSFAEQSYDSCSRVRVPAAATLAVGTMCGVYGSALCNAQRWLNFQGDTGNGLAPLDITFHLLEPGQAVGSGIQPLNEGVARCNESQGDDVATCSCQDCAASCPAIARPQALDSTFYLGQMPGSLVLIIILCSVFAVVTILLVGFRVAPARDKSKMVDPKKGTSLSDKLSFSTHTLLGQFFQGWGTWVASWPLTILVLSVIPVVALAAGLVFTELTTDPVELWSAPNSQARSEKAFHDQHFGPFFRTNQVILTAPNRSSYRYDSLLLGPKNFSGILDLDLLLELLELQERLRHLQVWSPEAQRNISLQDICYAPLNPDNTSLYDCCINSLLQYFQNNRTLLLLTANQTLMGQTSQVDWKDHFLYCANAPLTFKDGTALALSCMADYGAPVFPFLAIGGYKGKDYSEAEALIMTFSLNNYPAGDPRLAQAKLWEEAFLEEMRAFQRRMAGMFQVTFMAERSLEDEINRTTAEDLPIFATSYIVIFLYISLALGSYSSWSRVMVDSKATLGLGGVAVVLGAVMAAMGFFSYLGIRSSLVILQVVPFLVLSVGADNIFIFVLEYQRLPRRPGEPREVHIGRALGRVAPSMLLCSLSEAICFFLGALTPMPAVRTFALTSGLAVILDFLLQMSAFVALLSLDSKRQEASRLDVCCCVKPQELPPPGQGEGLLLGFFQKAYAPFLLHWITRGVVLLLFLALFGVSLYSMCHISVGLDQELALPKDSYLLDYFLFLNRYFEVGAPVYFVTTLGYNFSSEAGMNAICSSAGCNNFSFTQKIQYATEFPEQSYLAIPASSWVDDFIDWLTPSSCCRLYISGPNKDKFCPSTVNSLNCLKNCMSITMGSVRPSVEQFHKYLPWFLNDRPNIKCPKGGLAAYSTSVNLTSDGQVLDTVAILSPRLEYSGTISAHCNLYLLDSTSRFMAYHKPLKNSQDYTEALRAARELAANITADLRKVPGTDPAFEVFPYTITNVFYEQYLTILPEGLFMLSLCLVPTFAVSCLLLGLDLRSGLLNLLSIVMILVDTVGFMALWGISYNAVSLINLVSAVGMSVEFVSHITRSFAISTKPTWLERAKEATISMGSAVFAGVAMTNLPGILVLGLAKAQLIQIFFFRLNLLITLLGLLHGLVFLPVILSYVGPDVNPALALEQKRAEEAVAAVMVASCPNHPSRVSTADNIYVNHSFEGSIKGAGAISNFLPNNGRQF
Assay: Displacement of [35S](2S,3S,4S,5R,6S)-6-(4-((2S,3R)-3-((S)-3-(4-fluorophenyl)-3-hydroxypropyl)-1-(4-(3-(methylsulfonamido)prop-1-ynyl)phenyl)-4-oxoazetidin-2-yl)phenoxy)-3,4,5-trihydroxytetrahydro-2H-pyran-2-carboxylic acid from human recombinant NPC1L1 expressed in HEK293 cells
Assay type: cell-based

IC50 | Structure (SMILES)
81 µM | Cc1ccc(CCC2CCC(CNC(=O)c3cn[nH]c3)CN2C(=O)OCc2ccccc2)cc1 (stereo unspecified)
79 µM | CC(C)(C)c1ccc(C(=O)NS(=O)(=O)N2CC3(CCN(C(=O)OCCc4ccccc4)CC3)c3ccccc32)cc1
7.4 µM | Cn1c(N(Cc2ccc(OCCCC(=O)O)cc2)[C@H]2CC[C@H](C(C)(C)C)CC2)nc2cc(OC3CCCC3)ccc21
4.6 µM | CC1(C(=O)O)COc2ccc(CCN(CCCCC3CCCCC3)C(=O)Nc3ccc(SC(F)(F)F)cc3)cc2O1 (stereo unspecified)
0.39 µM | O=C(c1cccc2ccccc12)N1CC(C(=O)N2CCC3(C=Cc4ccccc43)CC2)CC(c2ccccc2)C1 (stereo unspecified)
4.4 µM | CC(C)CNC(=O)CN1CN(c2ccccc2)C2(CCN(C(=O)c3ccc(C(C)(C)C)cc3)CC2)C1=O
